Data as given in US10632148B2, “Growth control of oral and superficial organisms using gallium compounds” (MOUNT SINAI SCHOOL OF MEDICINE, priority 2005, dated 2020).

Experiments:
Candida albicans = test: Susceptibility to gallium nitrate, MIC/MBC, microdilution broth method; type: cell-based, Candida albicans ATCC 10231; details: 27° C. for 48 hours, 9.75 × 10^5 CFU/ml
Method: (§1) Susceptibility of various microorganisms to gallium was tested by determining the minimum inhibitory concentration (MIC) and minimum bactericidal concentration (MBC) for each microorganism using gallium nitrate. In general, MIC is determined by (i) mixing a series of broths, each containing a standard number of microorganisms, with serially diluted solutions of the gallium compound; and (ii) determining the MIC, after incubation, that is the lowest concentration of the gallium compound that has inhibited the growth of the microorganism. The lower the MIC, the more susceptible the organism is. The MBC is determined by subculturing an aliquot of each sample from the MIC test on an appropriate agar plate containing no gallium compound. After incubation, the MBC is determined to be the lowest concentration of the gallium compound at which no growth is observed.
(§2) Specifically, in the present experiment, two grams of gallium nitrate powder were dissolved in 10 ml of filter-sterilized deionized water and the resulting 20% (w/v) (i.e., 200 mg/ml) solution was once again filter-sterilized. […]
(§3) The growth of the microorganisms were determined by visual observation of turbidity in the samples. […]

Streptococcus mutans = test: as above; type: cell-based, Streptococcus mutans ATCC 25175; details: Brain Heart Infusion broth, blood agar, 36° C. for 48 hours, 4.1 × 10^6 CFU/ml
Method: as §1, §2, §3

Porphyromonas gingivalis = type: cell-based, Porphyromonas gingivalis ATCC 33277
Pseudomonas aeruginosa = test: Susceptibility to gallium nitrate, MIC/MBC, macrodilution broth method; type: cell-based, Pseudomonas aeruginosa ATCC 15442; details: Muller Hinton broth, tryptic soy agar with 5% sheep blood, 36° C. for 48 hours, 7.6 × 10^5 CFU/ml
[1] = test system: Methicillin-resistant Staphylococcus aureus (MRSA); test: as above; type: cell-based, Staphylococcus aureus ATCC 33592; details: Muller Hinton broth, tryptic soy agar with 5% sheep blood, 36° C. for 48 hours, 5.2 × 10^5 CFU/ml
[2] = test system: Vancomycin-resistant Enterococcus faecalis (VRE); test: as above; type: cell-based, Enterococcus faecalis ATCC 51575; details: Muller Hinton broth, tryptic soy agar with 5% sheep blood, 36° C. for 48 hours, 3.9 × 10^5 CFU/ml
Escherichia coli O157:H7 = test: Susceptibility to gallium nitrate, MIC/MBC, microdilution broth method; type: cell-based, Escherichia coli O157:H7 ATCC 35150; details: Muller Hinton broth, tryptic soy agar with 5% sheep blood, 36° C. for 48 hours, 1.38 × 10^6 CFU/ml
Method: as §1, §2, §3

Salmonella typhi = test: Susceptibility to gallium nitrate, MIC/MBC, macrodilution broth method; type: cell-based, Salmonella typhi ATCC 6539; details: Muller Hinton broth, tryptic soy agar with 5% sheep blood, 36° C. for 48 hours, 8.3 × 10^5 CFU/ml
Campylobacter jejuni = test: Susceptibility to gallium nitrate, MIC/MBC, microdilution broth method; type: cell-based, Campylobacter jejuni ATCC 29428; details: Muller Hinton broth, tryptic soy agar with 5% sheep blood, 36° C. for 48 hours, 4.9 × 10^5 CFU/ml
Method: as §1, §2, §3

[3] = healthy adults, intravenous infusion for at least 7 days; cited from earlier work

O=[N+]([O-])[O-].O=[N+]([O-])[O-].O=[N+]([O-])[O-].[Ga+3] [gallium nitrate]
MIC (Candida albicans; Sabouraud Dextrose broth): 10000 µg/mL | MBC (Candida albicans; Sabouraud dextrose agar): >100000 µg/mL | MBC (Streptococcus mutans): 5000 µg/mL | MBC (Porphyromonas gingivalis): <780 µg/mL | MBC (Pseudomonas aeruginosa): 6250 µg/mL | MBC [1]: 12500 µg/mL | MBC [2]: 25000 µg/mL | MBC (Escherichia coli O157:H7): 6250 µg/mL | MBC (Salmonella typhi): 6250 µg/mL | MBC (Campylobacter jejuni): <780 µg/mL | tolerated dose [3]: at least 200 mg/m^2/day
